We go through three molecules from publication PMC7050772 (Cellular physiology and biochemistry : international …, 2020).

The IC50 is the concentration that gives 50% inhibition.

Structures are written as SMILES. Like-named read-outs stand apart in the source and are kept apart here.

The target in assay [1] is T1, cytochrome P450 1A1 (CYP1A1) (Homo sapiens, UniProt P04798).
T1 sequence (P04798 1-512): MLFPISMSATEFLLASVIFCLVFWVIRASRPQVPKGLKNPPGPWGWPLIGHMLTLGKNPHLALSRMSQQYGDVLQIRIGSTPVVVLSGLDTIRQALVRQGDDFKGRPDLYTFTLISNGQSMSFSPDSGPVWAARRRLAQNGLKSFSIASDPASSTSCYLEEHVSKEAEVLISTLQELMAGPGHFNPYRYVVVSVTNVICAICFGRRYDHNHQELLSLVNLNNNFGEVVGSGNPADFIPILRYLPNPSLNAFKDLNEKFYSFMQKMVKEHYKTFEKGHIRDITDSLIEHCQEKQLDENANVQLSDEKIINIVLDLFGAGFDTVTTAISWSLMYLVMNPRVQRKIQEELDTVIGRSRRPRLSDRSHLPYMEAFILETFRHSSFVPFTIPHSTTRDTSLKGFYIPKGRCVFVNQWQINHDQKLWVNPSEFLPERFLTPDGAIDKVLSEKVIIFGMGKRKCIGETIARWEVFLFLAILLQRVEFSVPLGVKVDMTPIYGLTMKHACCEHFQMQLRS
The assay is described as follows: P450-Glo Luc-CEE luminescence assay with recombinant CYP1A1 microsomes. It counts as biochemical.

Assay [2] deals with T1, cytochrome P450 1A1 (CYP1A1). The assay is described as above. In kind it is biochemical. The source holds these as a separate data set.

Take `NCCc1c[nH]c2ccc(O)cc12` [5-HT, Serotonin]: in assay [1], the IC50 turned out to be 1.62 µM.
`NCCc1c[nH]c2ccccc12` [TRYPT, Tryptamine]: the IC50 in assay [2] was determined as 1.4 µM.
`O=c1cc(-c2ccccc2)oc2c1ccc1ccccc12` [α-NF, α-naphthoflavone, reference compound]: in assay [2], the IC50 turned out to be 0.76 µM.
